This note sets out measurements from PubChem BioAssay AID248 (DTP/NCI, 2004).

Several values for one entry are separate records, joined by “and”; a condition that tells them apart may be missing. Identical values can stand only once. Inconclusive results and toxic doses are left out.

The test concerns L1210 leukemia ip in BDF1 mice, survival T/C. Nature of the test: NCI In Vivo Anticancer Drug Screen. Data for tumor model L1210 Leukemia (intraperitoneal) in B6D2F1 (BDF1) mice. The conditions noted are these: endpoint: mean survival time, higher = longer survival. The method, boiled down:
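Read-out is survival time, reported as the treated-group measurement over the vehicle-control measurement.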

The mark [1] stands for this setting: dose: 100.0 mg/kg/injection, schedule: Q04DX002 (ip), vehicle: Klucel (hydroxypropylcellulose) (HPC).
[2] abbreviates: dose: 100.0 mg/kg/injection, schedule: Q04DX003 (ip), vehicle: Klucel (hydroxypropylcellulose) (HPC).
[3] abbreviates: dose: 200.0 mg/kg/injection, schedule: Q04DX002 (ip), vehicle: Klucel (hydroxypropylcellulose) (HPC).
Where [4] appears, read: dose: 200.0 mg/kg/injection, schedule: Q04DX003 (ip), vehicle: Klucel (hydroxypropylcellulose) (HPC).
Setting [5] is: dose: 400.0 mg/kg/injection, schedule: Q04DX002 (ip), vehicle: Klucel (hydroxypropylcellulose) (HPC).
Setting [6] is: dose: 400.0 mg/kg/injection, schedule: Q04DX003 (ip), vehicle: Klucel (hydroxypropylcellulose) (HPC).
Where [7] appears, read: dose: 100.0 mg/kg/injection, schedule: Q01DX001 (ip), vehicle: carboxymethylcellulose (CMC).
The mark [8] stands for this setting: dose: 200.0 mg/kg/injection, schedule: Q01DX001 (ip), vehicle: carboxymethylcellulose (CMC).
The mark [9] stands for this setting: dose: 400.0 mg/kg/injection, schedule: Q01DX001 (ip), vehicle: carboxymethylcellulose (CMC).
[10] abbreviates: dose: 100.0 mg/kg/injection, schedule: Q01DX009 (ip), vehicle: saline with Tween-80.
Where [11] appears, read: dose: 200.0 mg/kg/injection, schedule: Q01DX009 (ip), vehicle: saline with Tween-80.
The mark [12] stands for this setting: dose: 400.0 mg/kg/injection, schedule: Q01DX009 (ip), vehicle: saline with Tween-80.
The mark [13] stands for this setting: dose: 100.0 mg/kg/injection, schedule: Q01DX009 (ip), vehicle: Klucel (hydroxypropylcellulose) (HPC).
[14] abbreviates: dose: 100.0 mg/kg/injection, schedule: Q04DX003 (ip), vehicle: saline with Tween-80.

For `Cc1ccc(NC(=O)N2CC2C)cc1NC(=O)N1CC1C` (configuration not stated), the T/C was 118 % of control (dose: 2.5 mg/kg/injection, schedule: Q01DX009 (ip), vehicle: saline) and 197 % of control (dose: 20.0 mg/kg/injection, schedule: Q01DX009 (ip), vehicle: saline).
On to `CCCCCCCCC/C=N\N=C(N)N`, for which the T/C by setting is: (dose: 15.0 mg/kg/injection, schedule: Q01DX Z (ip), vehicle: carboxymethylcellulose (CMC)) 101 % of control; (dose: 30.0 mg/kg/injection, schedule: Q01DX Z (ip), vehicle: carboxymethylcellulose (CMC)) 108 % of control; (dose: 60.0 mg/kg/injection, schedule: Q01DX Z (ip), vehicle: carboxymethylcellulose (CMC)) 97 % of control; (dose: 120.0 mg/kg/injection, schedule: Q01DX Z (ip), vehicle: carboxymethylcellulose (CMC)) 103 % of control and 104 % of control; (dose: 120.0 mg/kg/injection, schedule: Q01DX Z (oral), vehicle: carboxymethylcellulose (CMC)) 104 % of control; (dose: 240.0 mg/kg/injection, schedule: Q01DX Z (ip), vehicle: carboxymethylcellulose (CMC)) 100 % of control. Also, the T/C (dose: 240.0 mg/kg/injection, schedule: Q01DX Z (oral), vehicle: carboxymethylcellulose (CMC)) was 104 % of control; the T/C (dose: 480.0 mg/kg/injection, schedule: Q01DX Z (oral), vehicle: carboxymethylcellulose (CMC)) was 102 % of control; the T/C (dose: 960.0 mg/kg/injection, schedule: Q01DX Z (oral), vehicle: carboxymethylcellulose (CMC)) is 104 % of control.
For the compound `O=C(/C=C/c1ccccc1)c1ccccc1`, the T/C was 98 % of control (dose: 100.0 mg/kg/injection, schedule: Q01DX001 (ip), vehicle: Klucel (hydroxypropylcellulose) (HPC)); 105 % of control under setting [1]; 100 % of control under setting [2]; 99 % of control (dose: 200.0 mg/kg/injection, schedule: Q01DX001 (ip), vehicle: Klucel (hydroxypropylcellulose) (HPC)); 105 % of control under setting [3]; 104 % of control under setting [4]. In addition, the T/C by setting is: (dose: 400.0 mg/kg/injection, schedule: Q01DX001 (ip), vehicle: Klucel (hydroxypropylcellulose) (HPC)) 94 % of control; under setting [5], 94 % of control; under setting [6], 98 % of control.
As to `Nc1cc2c(cc1Br)[nH]c(=O)c1ccccc12`, the T/C was 98 % of control under setting [7], 96 % of control under setting [8] and 93 % of control under setting [9].
On to `CCOC(=O)Nc1cccc(O)c1`, for which the T/C by setting is: under setting [10], 91 % of control; under setting [11], 103 % of control; under setting [12], 92 % of control.
Turning to `OCC(O)COc1cccc2cccnc12` (configuration not stated), the T/C is 110 % of control (dose: 100.0 mg/kg/injection, schedule: Q04DX003 (ip), vehicle: saline); 101 % of control (dose: 200.0 mg/kg/injection, schedule: Q04DX003 (ip), vehicle: saline); 103 % of control (dose: 400.0 mg/kg/injection, schedule: Q04DX003 (ip), vehicle: saline).
As to `CCCCCCCCCC(C)NC(=O)CCl` (configuration not stated), the T/C is, setting by setting: (dose: 50.0 mg/kg/injection, schedule: Q01DX009 (ip), vehicle: Klucel (hydroxypropylcellulose) (HPC)) 87 % of control; under setting [13], 97 % of control; (dose: 200.0 mg/kg/injection, schedule: Q01DX009 (ip), vehicle: Klucel (hydroxypropylcellulose) (HPC)) 90 % of control.
As to `CCc1ccc(N=Nc2c(F)c(F)c(N(C)C)c(F)c2F)cc1`, the T/C under setting [7] was 102 % of control, the T/C under setting [8] is 100 % of control and the T/C under setting [9] is 100 % of control.
On to `O=S(Cc1ccc(Cl)cc1)C(Cl)(Cl)c1ccc(Cl)cc1` (configuration not stated), for which the T/C runs as follows: under setting [1], 116 % of control; under setting [3], 116 % of control; under setting [5], 94 % of control.
For `O=C(CCCCCCC(=O)C[n+]1ccccc1Br)C[n+]1ccccc1Br`, the T/C (dose: 1.4 mg/kg/injection, schedule: Q04DX003 (ip), vehicle: saline) was 105 % of control; the T/C (dose: 2.8 mg/kg/injection, schedule: Q04DX003 (ip), vehicle: saline) is 100 % of control; the T/C (dose: 5.6 mg/kg/injection, schedule: Q04DX003 (ip), vehicle: saline) is 97 % of control.
Take `CC1(c2ccccc2)OCCCO1`: the T/C runs as follows: (dose: 100.0 mg/kg/injection, schedule: Q01DX001 (ip), vehicle: saline with Tween-80) 100 % of control; (dose: 200.0 mg/kg/injection, schedule: Q01DX001 (ip), vehicle: saline with Tween-80) 98 % of control; (dose: 400.0 mg/kg/injection, schedule: Q01DX001 (ip), vehicle: saline with Tween-80) 107 % of control.
`CCCCCCCCC1=C(CCCCCCC(=O)OC)[14CH2]1`: the T/C reads like this: (dose: 75.0 mg/kg/injection, schedule: Q04DX003 (ip), vehicle: saline) 100 % of control; (dose: 150.0 mg/kg/injection, schedule: Q04DX003 (ip), vehicle: saline) 93 % of control; (dose: 300.0 mg/kg/injection, schedule: Q04DX003 (ip), vehicle: saline) 90 % of control.
Regarding `Nc1nc(N)c(NC/C=C\c2ccc([N+](=O)[O-])cc2)c(-c2ccccc2)n1`, the T/C (dose: 50.0 mg/kg/injection, schedule: Q01DX001 (ip), vehicle: saline) was 91 % of control; the T/C (dose: 100.0 mg/kg/injection, schedule: Q01DX001 (ip), vehicle: saline) is 97 % of control; the T/C (dose: 200.0 mg/kg/injection, schedule: Q01DX001 (ip), vehicle: saline) is 103 % of control; the T/C (dose: 400.0 mg/kg/injection, schedule: Q01DX001 (ip), vehicle: saline) is 109 % of control.
In the case of `O=C(CI)OCCCl`, the T/C by setting is: (dose: 12.5 mg/kg/injection, schedule: Q01DX009 (ip), vehicle: other) 94 % of control; (dose: 25.0 mg/kg/injection, schedule: Q01DX009 (ip), vehicle: other) 97 % of control; (dose: 50.0 mg/kg/injection, schedule: Q01DX009 (ip), vehicle: other) 97 % of control.
On to `CCCCCCOCCN1CCN(CCCN2c3ccccc3Sc3ccc(C(F)(F)F)cc32)CC1`, for which the T/C reads like this: (dose: 12.5 mg/kg/injection, schedule: Q04DX003 (ip), vehicle: saline with Tween-80) 106 % of control; (dose: 25.0 mg/kg/injection, schedule: Q04DX003 (ip), vehicle: saline with Tween-80) 101 % of control; (dose: 50.0 mg/kg/injection, schedule: Q04DX003 (ip), vehicle: saline with Tween-80) 101 % of control; under setting [14], 93 % of control.
Consider `CC(C)(C)OC(=O)NOC(=O)c1ccc([N+](=O)[O-])cc1`, for which the T/C is 104 % of control under setting [1], 96 % of control under setting [3] and 107 % of control under setting [5].
Take `Cc1ccc(N2C(=O)CC(Sc3ccccc3N)C2=O)cc1Cl` (configuration not stated): the T/C by setting is: under setting [13], 88 % of control; under setting [10], 88 % of control; under setting [2], 93 % of control; under setting [14], 86 % of control and 89 % of control; under setting [11], 96 % of control; under setting [4], 93 % of control. In addition, the T/C reads like this: (dose: 200.0 mg/kg/injection, schedule: Q04DX003 (ip), vehicle: saline with Tween-80) 87 % of control and 91 % of control; (dose: 400.0 mg/kg/injection, schedule: Q01DX009 (ip), vehicle: Klucel (hydroxypropylcellulose) (HPC)) 90 % of control; under setting [12], 95 % of control; under setting [6], 94 % of control; (dose: 400.0 mg/kg/injection, schedule: Q04DX003 (ip), vehicle: saline with Tween-80) 86 % of control and 87 % of control.
